The numbers were not newly measured in US20230241194A1, “PRE-ERYTHROCYTIC MALARIA VACCINES” (PATH, priority 2020, published 2023), which cites them from elsewhere.

In this data set the target is T1, TLR7 (Homo sapiens, UniProt Q9NYK1).
T1 sequence (Q9NYK1 27-1049): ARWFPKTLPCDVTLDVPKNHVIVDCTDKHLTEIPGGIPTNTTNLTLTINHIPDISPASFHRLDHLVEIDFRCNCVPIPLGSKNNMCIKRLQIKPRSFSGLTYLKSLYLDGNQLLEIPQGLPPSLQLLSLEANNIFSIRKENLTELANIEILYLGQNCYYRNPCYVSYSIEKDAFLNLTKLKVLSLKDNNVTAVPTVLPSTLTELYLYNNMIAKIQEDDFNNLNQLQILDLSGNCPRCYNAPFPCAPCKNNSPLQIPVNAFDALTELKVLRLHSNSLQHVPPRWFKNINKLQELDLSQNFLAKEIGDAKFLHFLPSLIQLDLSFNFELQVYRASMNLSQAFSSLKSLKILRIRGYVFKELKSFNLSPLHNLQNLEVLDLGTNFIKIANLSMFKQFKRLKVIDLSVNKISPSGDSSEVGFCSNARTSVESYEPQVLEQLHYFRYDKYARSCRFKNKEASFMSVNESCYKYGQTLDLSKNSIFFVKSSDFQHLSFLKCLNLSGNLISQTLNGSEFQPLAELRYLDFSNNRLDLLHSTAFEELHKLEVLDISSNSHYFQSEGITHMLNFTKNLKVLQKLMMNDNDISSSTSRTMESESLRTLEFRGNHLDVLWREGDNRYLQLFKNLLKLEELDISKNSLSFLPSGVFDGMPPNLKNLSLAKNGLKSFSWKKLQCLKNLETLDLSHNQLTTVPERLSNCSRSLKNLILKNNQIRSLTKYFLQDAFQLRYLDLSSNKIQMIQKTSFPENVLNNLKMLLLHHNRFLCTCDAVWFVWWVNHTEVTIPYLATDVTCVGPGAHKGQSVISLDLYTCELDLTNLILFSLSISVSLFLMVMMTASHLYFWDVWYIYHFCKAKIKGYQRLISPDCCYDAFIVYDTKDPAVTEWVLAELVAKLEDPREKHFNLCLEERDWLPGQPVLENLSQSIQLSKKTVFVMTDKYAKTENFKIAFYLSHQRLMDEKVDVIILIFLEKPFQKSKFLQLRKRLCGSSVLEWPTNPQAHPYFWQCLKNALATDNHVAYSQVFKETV
The settings on record: reported in PTL 1.

In the case of `CCC[C@@H](CCO)Nc1nc(N)nc(C)c1Cc1ccc(CN(C)CCNC(=O)CC/C(C)=C/CC/C(C)=C/CC/C(C)=C/CC/C=C(\C)CC/C=C(\C)CCC=C(C)C)cc1` [Compound A, (4E,8E,12E,16E,20E)-N-{2-[{4-[(2-amino-4-{[(3S)-1-hydroxyhexan-3-yl]amino}-6-methylpyrimidin-5-yl)methyl]benzyl}(methyl)amino]ethyl}-4,8,12,17,21,25-hexamethylhexacosa-4,8,12,16,20,24-hexaenamide], the TLR7 agonistic activity entry was “having TLR7 agonistic activity”.
